How the values were obtained:
Test in all cases: relative viability (nuclei count vs DMSO), 5 days (fraction); higher = more cells survive
Tozasertib + Trametinib = compound: Cc1cc(Nc2cc(N3CCN(C)CC3)nc(Sc3ccc(NC(=O)C4CC4)cc3)n2)n[nH]1 [Tozasertib] + CC(=O)Nc1cccc(-n2c(=O)n(C3CC3)c(=O)c3c(Nc4ccc(I)cc4F)n(C)c(=O)c(C)c32)c1 [Trametinib] (partner 0.02 µM)
Summary of the method: (§1)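 Lung cancer cell lines in 1536-well plates got either a single drug or a fixed anchor-drug dose together with five library-drug doses (not always all listed) in √10 steps, by pin tool, on the day after seeding. Nuclei were counted after 5 days, and relative viability is the treated-to-vehicle ratio of nuclei counts. Values are medians of duplicate plates.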

Tozasertib + Bortezomib = compound: Cc1cc(Nc2cc(N3CCN(C)CC3)nc(Sc3ccc(NC(=O)C4CC4)cc3)n2)n[nH]1 [Tozasertib] + CC(C)C[C@H](NC(=O)[C@H](Cc1ccccc1)NC(=O)c1cnccn1)B(O)O [Bortezomib] (partner 0.002 µM)
Summary of the method: as §1

Tozasertib + Dasatinib = compound: Cc1cc(Nc2cc(N3CCN(C)CC3)nc(Sc3ccc(NC(=O)C4CC4)cc3)n2)n[nH]1 [Tozasertib] + Cc1nc(Nc2ncc(C(=O)Nc3c(C)cccc3Cl)s2)cc(N2CCN(CCO)CC2)n1 [Dasatinib] (partner 0.075 µM)
Summary of the method: as §1

Tozasertib + AZD7762 = compound: Cc1cc(Nc2cc(N3CCN(C)CC3)nc(Sc3ccc(NC(=O)C4CC4)cc3)n2)n[nH]1 [Tozasertib] + NC(=O)Nc1cc(-c2cccc(F)c2)sc1C(=O)N[C@H]1CCCNC1 [AZD7762] (partner 0.2 µM)
Summary of the method: as §1

Tozasertib + Olaparib = compound: Cc1cc(Nc2cc(N3CCN(C)CC3)nc(Sc3ccc(NC(=O)C4CC4)cc3)n2)n[nH]1 [Tozasertib] + O=C(c1cc(Cc2n[nH]c(=O)c3ccccc23)ccc1F)N1CCN(C(=O)C2CC2)CC1 [Olaparib] (partner 8 µM)
Summary of the method: as §1

EPLC-272H
relative viability (Tozasertib + Trametinib; first compound 0.004 µM): 0.263 | relative viability (Tozasertib + Trametinib; first compound 0.01265 µM): 0.308 | relative viability (Tozasertib + Trametinib; first compound 0.04 µM): 0.32 | relative viability (Tozasertib + Trametinib; first compound 0.1265 µM): 0.259 | relative viability (Tozasertib + Bortezomib; first compound 0.004 µM): 0.774 | relative viability (Tozasertib + Bortezomib; first compound 0.01265 µM): 0.804 | relative viability (Tozasertib + Bortezomib; first compound 0.04 µM): 0.775 | relative viability (Tozasertib + Dasatinib; first compound 0.004 µM): 0.313 | relative viability (Tozasertib + Dasatinib; first compound 0.01265 µM): 0.399 | relative viability (Tozasertib + Dasatinib; first compound 0.04 µM): 0.39 | relative viability (Tozasertib + Dasatinib; first compound 0.1265 µM): 0.291 | relative viability (Tozasertib + AZD7762; first compound 0.004 µM): 0.147 | relative viability (Tozasertib + AZD7762; first compound 0.01265 µM): 0.249 | relative viability (Tozasertib + AZD7762; first compound 0.04 µM): 0.192 | relative viability (Tozasertib + AZD7762; first compound 0.1265 µM): 0.301 | relative viability (Tozasertib + Olaparib; first compound 0.004 µM): 0.729 | relative viability (Tozasertib + Olaparib; first compound 0.1265 µM): 0.341

UMC-11
relative viability (Tozasertib + Trametinib; first compound 0.004 µM): 0.794 | relative viability (Tozasertib + Trametinib; first compound 0.01265 µM): 0.699 | relative viability (Tozasertib + Trametinib; first compound 0.04 µM): 0.653 | relative viability (Tozasertib + Trametinib; first compound 0.1265 µM): 0.259 | relative viability (Tozasertib + Bortezomib; first compound 0.004 µM): 0.729 | relative viability (Tozasertib + Bortezomib; first compound 0.01265 µM): 0.621 | relative viability (Tozasertib + Bortezomib; first compound 0.04 µM): 0.768 | relative viability (Tozasertib + Bortezomib; first compound 0.1265 µM): 0.186 | relative viability (Tozasertib + Dasatinib; first compound 0.004 µM): 0.495 | relative viability (Tozasertib + Dasatinib; first compound 0.01265 µM): 0.545 | relative viability (Tozasertib + Dasatinib; first compound 0.04 µM): 0.521 | relative viability (Tozasertib + Dasatinib; first compound 0.1265 µM): 0.161 | relative viability (Tozasertib + Olaparib; first compound 0.004 µM): 0.367 | relative viability (Tozasertib + Olaparib; first compound 0.01265 µM): 0.47 | relative viability (Tozasertib + Olaparib; first compound 0.04 µM): 0.362 | relative viability (Tozasertib + Olaparib; first compound 0.1265 µM): 0.257

NCI-H1793
relative viability (Tozasertib + Trametinib; first compound 0.004 µM): 0.442 | relative viability (Tozasertib + Trametinib; first compound 0.01265 µM): 0.385 | relative viability (Tozasertib + Trametinib; first compound 0.04 µM): 0.415 | relative viability (Tozasertib + Trametinib; first compound 0.1265 µM): 0.328 | relative viability (Tozasertib + Dasatinib; first compound 0.004 µM): 0.387 | relative viability (Tozasertib + Dasatinib; first compound 0.01265 µM): 0.36 | relative viability (Tozasertib + Dasatinib; first compound 0.04 µM): 0.377 | relative viability (Tozasertib + Dasatinib; first compound 0.1265 µM): 0.285 | relative viability (Tozasertib + AZD7762; first compound 0.004 µM): 0.405 | relative viability (Tozasertib + AZD7762; first compound 0.01265 µM): 0.425 | relative viability (Tozasertib + AZD7762; first compound 0.04 µM): 0.59 | relative viability (Tozasertib + AZD7762; first compound 0.1265 µM): 0.486 | relative viability (Tozasertib + Olaparib; first compound 0.004 µM): 0.918 | relative viability (Tozasertib + Olaparib; first compound 0.01265 µM): 0.778 | relative viability (Tozasertib + Olaparib; first compound 0.04 µM): 0.974 | relative viability (Tozasertib + Olaparib; first compound 0.1265 µM): 0.533

NCI-H2405
relative viability (Tozasertib + Trametinib; first compound 0.004 µM): 0.649 | relative viability (Tozasertib + Trametinib; first compound 0.01265 µM): 0.658 | relative viability (Tozasertib + Trametinib; first compound 0.04 µM): 0.652 | relative viability (Tozasertib + Trametinib; first compound 0.1265 µM): 0.611 | relative viability (Tozasertib + Bortezomib; first compound 0.004 µM): 1.05 | relative viability (Tozasertib + Bortezomib; first compound 0.01265 µM): 0.944 | relative viability (Tozasertib + Bortezomib; first compound 0.04 µM): 0.96 | relative viability (Tozasertib + Bortezomib; first compound 0.1265 µM): 0.826 | relative viability (Tozasertib + Dasatinib; first compound 0.004 µM): 0.251 | relative viability (Tozasertib + Dasatinib; first compound 0.01265 µM): 0.124 | relative viability (Tozasertib + Dasatinib; first compound 0.04 µM): 0.19 | relative viability (Tozasertib + Dasatinib; first compound 0.1265 µM): 0.197 | relative viability (Tozasertib + AZD7762; first compound 0.004 µM): 0.753 | relative viability (Tozasertib + AZD7762; first compound 0.04 µM): 0.612 | relative viability (Tozasertib + AZD7762; first compound 0.1265 µM): 0.547 | relative viability (Tozasertib + Olaparib; first compound 0.004 µM): 0.913 | relative viability (Tozasertib + Olaparib; first compound 0.04 µM): 0.691

NCI-H661
relative viability (Tozasertib + Trametinib; first compound 0.004 µM): 0.564 | relative viability (Tozasertib + Trametinib; first compound 0.01265 µM): 0.579 | relative viability (Tozasertib + Trametinib; first compound 0.04 µM): 0.618 | relative viability (Tozasertib + Trametinib; first compound 0.1265 µM): 0.336 | relative viability (Tozasertib + Bortezomib; first compound 0.004 µM): 0.922 | relative viability (Tozasertib + Bortezomib; first compound 0.01265 µM): 0.741 | relative viability (Tozasertib + Bortezomib; first compound 0.04 µM): 1.03 | relative viability (Tozasertib + Bortezomib; first compound 0.1265 µM): 0.499 | relative viability (Tozasertib + Dasatinib; first compound 0.004 µM): 1.12 | relative viability (Tozasertib + Dasatinib; first compound 0.01265 µM): 0.85 | relative viability (Tozasertib + Dasatinib; first compound 0.04 µM): 0.699 | relative viability (Tozasertib + Dasatinib; first compound 0.1265 µM): 0.249 | relative viability (Tozasertib + Olaparib; first compound 0.004 µM): 0.807 | relative viability (Tozasertib + Olaparib; first compound 0.01265 µM): 0.791 | relative viability (Tozasertib + Olaparib; first compound 0.04 µM): 0.663 | relative viability (Tozasertib + Olaparib; first compound 0.1265 µM): 0.448

NCI-H1993
relative viability (Tozasertib + Trametinib; first compound 0.004 µM): 0.444 | relative viability (Tozasertib + Trametinib; first compound 0.01265 µM): 0.396 | relative viability (Tozasertib + Trametinib; first compound 0.04 µM): 0.5 | relative viability (Tozasertib + Trametinib; first compound 0.1265 µM): 0.54 | relative viability (Tozasertib + Bortezomib; first compound 0.004 µM): 1.06 | relative viability (Tozasertib + Bortezomib; first compound 0.01265 µM): 1.05 | relative viability (Tozasertib + Bortezomib; first compound 0.04 µM): 1.33 | relative viability (Tozasertib + Bortezomib; first compound 0.1265 µM): 0.805 | relative viability (Tozasertib + Dasatinib; first compound 0.004 µM): 0.729 | relative viability (Tozasertib + Dasatinib; first compound 0.01265 µM): 0.456 | relative viability (Tozasertib + Dasatinib; first compound 0.04 µM): 0.636 | relative viability (Tozasertib + Dasatinib; first compound 0.1265 µM): 0.537 | relative viability (Tozasertib + AZD7762; first compound 0.004 µM): 0.708 | relative viability (Tozasertib + AZD7762; first compound 0.01265 µM): 0.761 | relative viability (Tozasertib + AZD7762; first compound 0.04 µM): 0.837 | relative viability (Tozasertib + AZD7762; first compound 0.1265 µM): 0.542 | relative viability (Tozasertib + Olaparib; first compound 0.004 µM): 0.998 | relative viability (Tozasertib + Olaparib; first compound 0.01265 µM): 1.05 | relative viability (Tozasertib + Olaparib; first compound 0.04 µM): 0.897 | relative viability (Tozasertib + Olaparib; first compound 0.1265 µM): 0.722

NCI-H322M
relative viability (Tozasertib + Trametinib; first compound 0.004 µM): 0.498 | relative viability (Tozasertib + Trametinib; first compound 0.04 µM): 0.573 | relative viability (Tozasertib + Trametinib; first compound 0.1265 µM): 0.458 | relative viability (Tozasertib + Bortezomib; first compound 0.004 µM): 0.993 | relative viability (Tozasertib + Bortezomib; first compound 0.01265 µM): 1.12 | relative viability (Tozasertib + Bortezomib; first compound 0.04 µM): 1.39 | relative viability (Tozasertib + Bortezomib; first compound 0.1265 µM): 1.23 | relative viability (Tozasertib + Dasatinib; first compound 0.004 µM): 0.263 | relative viability (Tozasertib + Dasatinib; first compound 0.01265 µM): 0.263 | relative viability (Tozasertib + Dasatinib; first compound 0.04 µM): 0.257 | relative viability (Tozasertib + Dasatinib; first compound 0.1265 µM): 0.224 | relative viability (Tozasertib + AZD7762; first compound 0.004 µM): 0.497 | relative viability (Tozasertib + AZD7762; first compound 0.01265 µM): 0.507 | relative viability (Tozasertib + AZD7762; first compound 0.04 µM): 0.572 | relative viability (Tozasertib + AZD7762; first compound 0.1265 µM): 0.48 | relative viability (Tozasertib + Olaparib; first compound 0.004 µM): 0.788 | relative viability (Tozasertib + Olaparib; first compound 0.01265 µM): 0.843 | relative viability (Tozasertib + Olaparib; first compound 0.04 µM): 0.863 | relative viability (Tozasertib + Olaparib; first compound 0.1265 µM): 0.559

NCI-H1651
relative viability (Tozasertib + Trametinib; first compound 0.004 µM): 0.884 | relative viability (Tozasertib + Trametinib; first compound 0.01265 µM): 0.785 | relative viability (Tozasertib + Trametinib; first compound 0.04 µM): 0.907 | relative viability (Tozasertib + Bortezomib; first compound 0.004 µM): 1.05 | relative viability (Tozasertib + Bortezomib; first compound 0.01265 µM): 0.851 | relative viability (Tozasertib + Bortezomib; first compound 0.04 µM): 0.979 | relative viability (Tozasertib + Bortezomib; first compound 0.1265 µM): 0.885 | relative viability (Tozasertib + Dasatinib; first compound 0.004 µM): 0.433 | relative viability (Tozasertib + Dasatinib; first compound 0.01265 µM): 0.371 | relative viability (Tozasertib + Dasatinib; first compound 0.1265 µM): 0.234 | relative viability (Tozasertib + AZD7762; first compound 0.004 µM): 0.469 | relative viability (Tozasertib + AZD7762; first compound 0.01265 µM): 0.464 | relative viability (Tozasertib + AZD7762; first compound 0.04 µM): 0.498 | relative viability (Tozasertib + AZD7762; first compound 0.1265 µM): 0.422 | relative viability (Tozasertib + Olaparib; first compound 0.004 µM): 0.189 | relative viability (Tozasertib + Olaparib; first compound 0.01265 µM): 0.158 | relative viability (Tozasertib + Olaparib; first compound 0.04 µM): 0.173 | relative viability (Tozasertib + Olaparib; first compound 0.1265 µM): 0.167

LCLC-103H
relative viability (Tozasertib + Trametinib; first compound 0.004 µM): 0.659 | relative viability (Tozasertib + Trametinib; first compound 0.01265 µM): 0.71 | relative viability (Tozasertib + Trametinib; first compound 0.04 µM): 0.675 | relative viability (Tozasertib + Bortezomib; first compound 0.004 µM): 1.04 | relative viability (Tozasertib + Bortezomib; first compound 0.01265 µM): 1.14 | relative viability (Tozasertib + Bortezomib; first compound 0.04 µM): 1.2 | relative viability (Tozasertib + Bortezomib; first compound 0.1265 µM): 0.974 | relative viability (Tozasertib + Dasatinib; first compound 0.004 µM): 0.539 | relative viability (Tozasertib + Dasatinib; first compound 0.01265 µM): 0.452 | relative viability (Tozasertib + Dasatinib; first compound 0.04 µM): 0.456 | relative viability (Tozasertib + Dasatinib; first compound 0.1265 µM): 0.478 | relative viability (Tozasertib + AZD7762; first compound 0.004 µM): 0.724 | relative viability (Tozasertib + AZD7762; first compound 0.01265 µM): 0.842 | relative viability (Tozasertib + AZD7762; first compound 0.04 µM): 0.846 | relative viability (Tozasertib + AZD7762; first compound 0.1265 µM): 0.732 | relative viability (Tozasertib + Olaparib; first compound 0.004 µM): 0.782 | relative viability (Tozasertib + Olaparib; first compound 0.01265 µM): 0.811 | relative viability (Tozasertib + Olaparib; first compound 0.04 µM): 0.772 | relative viability (Tozasertib + Olaparib; first compound 0.1265 µM): 0.734

From the supplement of paper PMC10307832
